Reference: patent US20120263794A1, “TREATMENT OF EYE DISEASES USING ENCAPSULATED CELLS ENCODING AND SECRETING A NEUROPROTECTIVE FACTOR AND/OR AN ANTI-ANGIOGENIC FACTOR” (BIOCOMPATIBLE UK LTD., priority 2009, published 2012)
Ends that are not written are not given here.

Tests used:
Rin-5F cells = experiment: Anti-apoptotic efficacy, cycloheximid-induced apoptosis, AlamarBlue; type: cell-based, rat; settings: 24 hours
Method: Apoptosis is induced in RIN-5F cells by addition of the protein biosynthesis inhibitor cycloheximid (CHX) in a final of 10 μg/ml and 100 μg/ml respectively.
40.000 Rin-5F cells were seeded per 96 well and cultivated for 2 days in RPMI supplemented with 1% L-Glutamin and 10% fetal calf serum. […] After 24 hours cell viability is quantified using AlamarBlue.

DPP-IV = molecular target: T1, DPP-IV (Homo sapiens, UniProt P27487); experiment: In vitro human plasma stability of GLP-1CM peptides; type: in vitro ADME; settings: 20 ng/ml, 37° C., 5% CO2, 3 hours, in contrast to native GLP-1(7-37)
T1 construct: incubated at concentrations of 20 ng/ml with human plasma; from tissue; host or cells: human plasma
T1 sequence (P27487 whole entry): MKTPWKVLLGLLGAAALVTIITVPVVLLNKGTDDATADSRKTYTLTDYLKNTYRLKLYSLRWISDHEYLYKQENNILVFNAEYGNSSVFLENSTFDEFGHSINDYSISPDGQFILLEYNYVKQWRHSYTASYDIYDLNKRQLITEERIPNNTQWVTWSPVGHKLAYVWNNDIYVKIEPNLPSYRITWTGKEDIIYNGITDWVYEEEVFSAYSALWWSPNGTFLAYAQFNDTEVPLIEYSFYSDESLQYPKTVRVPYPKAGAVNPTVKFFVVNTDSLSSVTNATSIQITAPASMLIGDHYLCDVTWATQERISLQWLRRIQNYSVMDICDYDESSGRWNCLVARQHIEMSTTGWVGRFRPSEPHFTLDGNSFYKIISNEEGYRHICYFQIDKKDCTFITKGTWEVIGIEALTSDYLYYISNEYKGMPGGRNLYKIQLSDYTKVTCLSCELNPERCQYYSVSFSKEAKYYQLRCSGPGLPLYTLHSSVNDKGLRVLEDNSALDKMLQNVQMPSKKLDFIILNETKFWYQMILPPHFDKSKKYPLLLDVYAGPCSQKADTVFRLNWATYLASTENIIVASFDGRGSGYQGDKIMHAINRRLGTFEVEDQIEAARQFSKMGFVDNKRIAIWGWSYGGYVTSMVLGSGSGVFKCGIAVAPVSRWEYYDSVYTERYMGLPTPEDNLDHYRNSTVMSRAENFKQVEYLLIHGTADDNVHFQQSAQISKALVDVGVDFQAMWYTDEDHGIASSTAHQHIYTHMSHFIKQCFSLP
Method: Synthetic GLP-1 peptides (SEQ ID NO:1syn, SEQ ID SEQ ID NO:7rec, SEQ ID NO:8syn) were incubated at concentrations of 20 ng/ml with human plasma at 37° C. and 5% CO2 for 3 hours. Dipeptidylpeptidase activity of the plasma was inhibited by a DPP-IV inhibitor (#DPP4, Biotrend).

Molecule | cell viability (Rin-5F cells; different concentrations, CHX 10 μg/ml and 100 μg/ml) | anti-apoptotic effect (Rin-5F cells; in the presence of 1 nM, cycloheximid, serumfree, p<0.01) | stability in human plasma (active GLP, ELISA) (DPP-IV)
CM1: C-terminally elongated dimeric GLP-1 fusion peptide GLP-1 (7-37)-IP2-GLP-1 (7-37) produced by construct #217 | significant (p<0.01) increase of cell viability | significant anti-apoptotic effect | 
GLP-1 (7-37)-IP2-RR-GLP1(7-37) [SEQ ID NO:6] |  |  | significantly stabilized
HAEGTFTSDVSSYLEGQAAKEFIAWLVKGRGRRDFPEEVAIAEELG [SEQ ID NO:8, GLP-1 (7-37)-IP2] |  |  | significantly stabilized
GLP-1 (7-37)-IP2-RR-GLP2 (protein, Description of sequence SEQ ID No 7 (ID7rec, CM2) corresponds to GLP-1(7-37)-IP2-RR-GLP2, 83 aa, 9,4 kD, 83 aa, recombinant) HAEGTFTSDVSSYLEGQAAKEFIAWLVKGRGRRDFPEEVAIAEELGRRHADGSFSDEMSTILDNLATRDFINWLIQTKITDKK |  |  | significantly stabilized
